Source: patent publication US20260216347A1, “Substituted Imidazo-Based Compounds as Ligand Directed Degraders of IRAK3” (Celgene Corporation, priority 2022, published 2026)

The compounds below were run against T1, IRAK3 (Homo sapiens, UniProt Q9Y616) (assay: IRAK3 biochemical binding assay (LanthaScreen Eu Kinase Binding, TR-FRET)).
T1 construct: IRAK Endogenous HTRF Degradation Assay; endogenous in cells
T1 sequence (Q9Y616 1-596): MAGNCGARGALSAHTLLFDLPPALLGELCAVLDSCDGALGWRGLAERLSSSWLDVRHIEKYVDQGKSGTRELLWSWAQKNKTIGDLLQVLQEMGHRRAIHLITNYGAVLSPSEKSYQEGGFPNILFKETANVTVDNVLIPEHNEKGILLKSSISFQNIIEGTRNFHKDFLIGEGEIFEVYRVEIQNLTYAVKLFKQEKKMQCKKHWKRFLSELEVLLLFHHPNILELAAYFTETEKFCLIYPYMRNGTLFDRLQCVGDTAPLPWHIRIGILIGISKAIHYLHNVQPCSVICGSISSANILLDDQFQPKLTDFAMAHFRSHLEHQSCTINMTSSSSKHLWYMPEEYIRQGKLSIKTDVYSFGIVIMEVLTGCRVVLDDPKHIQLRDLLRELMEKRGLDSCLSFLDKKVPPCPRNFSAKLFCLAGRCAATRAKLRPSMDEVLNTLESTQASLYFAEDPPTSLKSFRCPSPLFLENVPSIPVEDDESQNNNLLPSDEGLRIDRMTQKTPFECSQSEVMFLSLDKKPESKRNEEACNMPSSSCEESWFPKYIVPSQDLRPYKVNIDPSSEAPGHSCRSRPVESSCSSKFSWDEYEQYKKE
Procedure: Example B3. IRAK3 Biochemical Binding Assay
The LanthaScreen® Eu Kinase Binding assay was performed as described by the vendor (ThermoFisher Scientific Waltham, MA). Briefly, 100× solutions of compound were prepared in DMSO via serial dilution of the 10 mM stock solution in a 384-well reagent plate using 3-fold intervals to achieve final concentrations. 1 μL of the compound dilution series were added to the corresponding wells of a 384-well reagent plate containing 32.3 μL of 1× buffer (50 mM HEPES pH 7.4, […], 1 mM EGTA, 0.01% Brij-35). 5 μL of the buffer diluted compounds were transferred to the corresponding wells of a 384-well assay plate. 5 μL of 3× tracer was transferred to each well of the assay plate for a final tracer concentration of 10 nM. Finally, 5 μL of the 3×Eu-Anti-GST and IRAK3 mix was transferred to each well for a final concentration of 2 nM and 10 nM respectively. Reactions were allowed to incubate for 1 hour at room temperature. TR-FRET signal of the interaction (λex340/λem 665/λem 615) was read at room temperature with a delay time of 100 ρs and an integration time of 200 ρs using an Envision plate reader. Background corrected emission signal ratios at each compound concentration were used to calculate percentage of inhibition (% Inhibition). Plots of % Inhibition versus inhibitor concentrations were fit according to a dose-response equation (Eq. 1) to generate IC50 and Hill slope values using Dotmatics software (Dotmatics, Bishops Stortford, Hertfordshire, England).
Using these assays, IC50, Dmax, EC50, and DC50 values of the following compounds were determined. Dmax is defined as the maximum percent degradation achieved and DC50 is the concentration at which 50% degradation is achieved.

| IC50 [nM] | SMILES |
| --- | --- |
| 2 | Cc1cc(-c2ccc(Nc3cnn([C@H]4CC[C@@H](CCN5CCN(c6ccc(C7CCC(=O)NC7=O)cc6)CC5)CC4)c3)c3nccn23)c(F)cc1F (some centres unmarked) [Compound 103] |
| 0.3 | Cc1cc(-c2cnc(Nc3cnn([C@H]4CC[C@H](CCN5CC6(C5)CN(c5ccc(C7CCC(=O)NC7=O)cc5)C6)CC4)c3)c3nccn23)c(F)cc1F (some centres unmarked) [Compound 104] |
| 0.18 | Cc1cc(-c2cnc(Nc3cnn([C@H]4CC[C@H](CCN5CCN(c6ccc7c(C8CCC(=O)NC8=O)nn(C)c7c6)CC5)CC4)c3)c3nccn23)c(F)cc1F (stereo partly drawn) [Compound 105, 3-(6-(4-(2-((trans)-4-(4-((5-(2,4-difluoro-5-methylphenyl)imidazo[1,2-a]pyrazin-8-yl)amino)-1H-pyrazol-1-yl)cyclohexyl)ethyl)piperazin-1-yl)-1-methyl-1H-indazol-3-yl)piperidine-2,6-dione] |
| 2.6 | Cc1cc(-c2ccc(Nc3cnn([C@H]4CC[C@H](CCN5CCN(c6ccc(C7CCC(=O)NC7=O)cc6)CC5)CC4)c3)c3nccn23)c(F)cc1F (some centres unmarked) [Compound 108] |
| 0.26 | Cc1cc(-c2cnc(Nc3cnn(C4CCN(CCN5CCC(n6cc(C7CCC(=O)NC7=O)cn6)CC5)CC4)c3)c3nccn23)c(F)cc1F (centres unmarked) [Compound 109, 3-(1-(1-(2-(4-(4-((5-(2,4-difluoro-5-methylphenyl)imdazo [1,2-a]pyrazin-8-yl)amino)-1H-pyrazol-1-yl)piperidin-1-yl)ethyl)piperidin-4-yl)-1H-pyrazol-4-yl)piperidine-2,6-dione] |
| 0.86 | Cc1cc(-c2cnc(Nc3cnn(C4CCN(CCN5CCN(c6ccc(-n7cc(F)c(=O)[nH]c7=O)cc6)CC5)CC4)c3)c3nccn23)c(F)cc1F [Compound 110, 1-(4-(4-(2-(4-(4-((5-(2,4-difluoro-5-methylphenyl)imdazo [1,2-a]pyrazin-8-yl)amino)-1H-pyrazol-1-yl)piperidin-1-yl)ethyl)piperazin-1-yl)phenyl)-5-fluoropyrimidine-2,4(1H,3H)-dione] |
| 3.2 | Cn1nc(C2CCC(=O)NC2=O)c2cccc(N3CCN(CCN4CCC(n5cc(Nc6ncc(C7CC7)n7ccnc67)cn5)CC4)CC3)c21 (centres unmarked) [Compound 113, 3-(7-(4-(2-(4-(4-((5-cyclopropylimidazo[1,2-a]pyrazin-8-yl)amino)-1H-pyrazol-1-yl)piperidin-1-yl)ethyl)piperazin-1-yl)-1-methyl-1H-indazol-3-yl)piperidine-2,6-dione] |
| 0.92 | O=C1CCC(c2ccc(N3CCN(CCN4CCC(n5cc(Nc6ncc(-c7cnn8c7CCCC8)n7ccnc67)cn5)CC4)CC3)cc2)C(=O)N1 (centres unmarked) [Compound 114, 3-(4-(4-(2-(4-(4-((5-(4,5,6,7-tetrahydropyrazolo[1,5-a]pyridin-3-yl)imidazo[1,2-a]pyrazin-8-y1)amino)-1H-pyrazol-1-yl)piperidin-1-yl)ethyl)piperazin-1-y1)phenyl)piperidine-2,6-dione] |
| 25 | Cn1nc(C2CCC(=O)NC2=O)c2ccc(N3CCN(CCN4CCC(n5cc(Nc6ncc(C7CC7)n7ccnc67)cn5)CC4)CC3)cc21 (centres unmarked) [Compound 115, 3-(6-(4-(2-(4-(4-((5-cyclopropylimidazo[1,2-a]pyrazin-8-yl)amino)-1H-pyrazol-1-yl)piperidin-1-yl)ethyl)piperazin-1-yl)-1-methyl-1H-indazol-3-yl)piperidine-2,6-dione] |
| 0.12 | Cc1cc(-c2cnc(Nc3cnn(C4CCN(CCN5CCC(n6cc(N7CCC(=O)NC7=O)cn6)CC5)CC4)c3)c3nccn23)c(F)cc1F [Compound 116, 1-(1-(1-(2-(4-(4-((5-(2,4-difluoro-5-methylphenyl)imdazo [1,2-a]pyrazin-8-yl)amino)-1H-pyrazol-1-yl)piperidin-1-yl)ethyl)piperidin-4-yl)-1H-pyrazol-4-yl) dihydropyrimidine-2,4(1H,3H)-dione] |
| 1 | Cc1cc(-c2cnc(Nc3cnn([C@H]4CC[C@H](CCN5CCN(c6cccc7c(C8CCC(=O)NC8=O)nn(C)c67)CC5)CC4)c3)c3nccn23)c(F)cc1F (stereo partly drawn) [Compound 117, 3-(7-(4-(2-((trans)-4-(4-((5-(2,4-difluoro-5-methylphenyl)imidazo[1,2-a]pyrazin-8-yl)amino)-1H-pyrazol-1-yl)cyclohexyl)ethyl)piperazin-1-yl)-1-methyl-1H-indazol-3-yl)piperidine-2,6-dione] |
| 0.1 | O=C1CCC(c2ccc(N3CCN(CC[C@H]4CC[C@H](n5cc(Nc6ncc(-c7cnn8c7CCCC8)n7ccnc67)cn5)CC4)CC3)cc2)C(=O)N1 (some centres unmarked) [Compound 118] |
| 1.7 | O=C1CCC(c2ccc(N3CCN(CCN4CCC(n5cc(Nc6ncc(-c7cnn(C8CC8)c7)n7ccnc67)cn5)CC4)CC3)cc2)C(=O)N1 (centres unmarked) [Compound 119, 3-(4-(4-(2-(4-(4-((5-(1-cyclopropyl-1H-pyrazol-4-yl)imidazo[1,2-a]pyrazin-8-yl)amino)-1H-pyrazol-1-yl)piperidin-1-yl)ethyl)piperazin-1-yl)phenyl) piperidine-2,6-dione] |
| 1.5 | O=C1CCC(c2ccc(N3CCN(CC[C@H]4CC[C@H](n5cc(Nc6ncc(-c7cn[nH]c7)n7ccnc67)cn5)CC4)CC3)cc2)C(=O)N1 (stereo partly drawn) [Compound 120, 3-(4-(4-(2-((trans)-4-(4-((5-(1H-pyrazol-4-yl)imidazo[1,2-a]pyrazin-8-yl)amino)-1H-pyrazol-1-yl)cyclohexyl)ethyl)piperazin-1-yl)phenyl) piperidine-2,6-dione] |
